Results taken from patent US7122686B2, “Analogs of discodermolide and dictyostatin-1, intermediates therefor and methods of synthesis thereof” (University of Pittsburgh, priority 2002, dated 2006).
Entries after “also recorded” stand apart in the source; their conditions may differ.

How the values were obtained:
[1] = system: paclitaxel binding site on tubulin; assay: Paclitaxel binding site inhibition assay ([3H]paclitaxel displacement); set-up: species or system bovine
Procedure: Paclitaxel binding site inhibition assay. A stock solution of [^3H]paclitaxel (26.8 μM, 16.2 Ci/mmol), obtained from the NCI, was prepared in 37% (v/v) DMSO. The test agents were prepared in 25% (v/v) DMSO-0.75 M monosodium glutamate (prepared from a 2M stock solution adjusted to pH 6.6 with HCl). The radiolabeled paclitaxel and test agents, as indicated in terms of final concentrations, were mixed in equal volumes and warmed to 37° C. A reaction mixture (50 μL) containing 0.75 M monosodium glutamate, 4.0 μM tubulin, and 40 μM ddGTP (a non-hydrolyzable analog of GTP) was prepared and incubated at 37° C. for 30 min to preform microtubules. An equivalent volume of drug mixture with [^3H]paclitaxel was added to preformed polymer and incubated for 30 min at 37° C. Bound [^3H]paclitaxel was separated from free drug by centrifugation of the reaction mixtures at 14000 rpm for 20 min at room temperature. Non-specific binding was determined by addition of a 12-fold excess of docetaxel. Radioactive counts from the supernatant (50 μL) were determined by scintillation spectrometry. Bound [^3H]paclitaxel was calculated from the following: total paclitaxel added to each reaction mixture minus the paclitaxel present in the supernatant (free drug). The % bound values were normalized to the control values with no inhibitor added.

MDA-MB231 (breast) = assay: Cell growth inhibition, MDA-MB231 (breast); format: cell-based, human; settings: for 50% growth inhibitory concentration: human breast cancer cells; for GI50: Homo sapiens, MDA-MB-231, 72 h, read-out: GI50 (μM) MDA-MB231 (breast)
Procedure: (§1) Cell Growth Inhibition[34] Cells were plated (500–2000 cells/well depending on the cell line) in 96-well microplates, allowed to attach and grow for 48 h, then treated with vehicle (4% DMSO, a concentration that allowed doubling times of 24 h or less) or test agent (50, 10, 2, 0.4 and 0.08 μM for the new agents; 0.001, 0.005, 0.010, 0.020 and 0.100 μM for paclitaxel and discodermolide) for the given times. One plate consisted of cells from each line used for a time zero cell number determination. The other plates in a given determination contained eight wells of control cells, eight wells of medium and each agent concentration tested in quadruplicate. Cell numbers were obtained spectrophotometrically (absorbance at 490 nm minus that at 630 nm) in a Dynamax plate reader after treatment with 3-(4,5-dimethylthiazol-2-yl)-5-(3-carboxymethoxyphenyl)-2-(4-sulfophenyl)-2H-tetrazolium (MTS) using phenazine methanesulfonate as the electron acceptor. After initial screening with the above 5-fold dilutions, fifty percent growth inhibitory concentration (GI50) values were determined for each agent by repeating the screen using 2-fold dilutions (five concentrations) centered on the initial estimated GI50 concentration, again in quadruplicate.

2008 (ovarian) = assay: Cell growth inhibition, 2008 (ovarian); format: cell-based, human; settings: for 50% growth inhibitory concentration: human ovarian cancer cells; for GI50: Homo sapiens, 72 h, read-out: GI50 (μM) 2008 (ovarian)
Procedure: as §1

tubulin = assay: Tubulin polymerization (microtubule stabilizing activity); format: biochemical, bovine; settings: in comparison to 10 μM paclitaxel; turbidity, cold-induced disassembly
Procedure: Tubulin Polymerization.[32] Tubulin assembly was followed in a Beckman-Coulter 7400 spectrophotometer, equipped with an electronic Peltier temperature controller, reading absorbance (turbidity) at 350 nm. Reaction mixtures (0.25 mL final volume) contained tubulin (final concentration 10 μM; 1 mg/mL), monosodium glutamate (0.8 M from a stock solution adjusted to pH 6.6 with HCl), DMSO (final volume 4% v/v), and differing concentrations of test agent where indicated. Reaction mixtures without test agent were cooled to 0° C. and added to cuvettes held at 0.25–0.5° C. in the spectrophotometer. Test agent in DMSO was then rapidly mixed in the reaction mixture. Each run contained one positive control (paclitaxel, 10 μM final concentration) and one negative control (DMSO only). Baselines were established at 0.25–2.5° C. and temperature was rapidly raised to 30° C. (in approximately 1 min) and held there for 20 min.

PC3 (prostate) = assay: Cell growth inhibition, PC3 (prostate); format: cell-based; settings: Homo sapiens, 72 h, read-out: GI50 (μM) PC3 (prostate)
Procedure: as §1

Structure (SMILES)	50% growth inhibitory concentration (MDA-MB231 (breast))	50% growth inhibitory concentration (2008 (ovarian))	Tubulin polymerization-inducing properties (FIGS. 6A-D, in words) (tubulin)	other results
C=CC=CC(C)[C@H]1OC(=O)C=CC=C[C@@H](C)[C@H](O)CCC=C[C@H](C)[C@H](O)[C@@H](C)C=CCC[C@@H](O)[C@H]1C (stereo partly drawn) [Compound 54, (7R,8R,13S,14S,15S,20R,21R,22R,23S)-8,14,20-Trihydroxy-7,13,15,21-tetramethyl-22-(1-methylpenta-2,4-dienyl)-oxacyclodocosa-3,5,11,16-tetraen-2-one]	about 1 μM	about 1 μM		[3H]paclitaxel displacement potency relative to discodermolide ([1]; [3H]paclitaxel stoichiometrically bound to microtubules): about ⅓
C=CC=C[C@H](C)[C@H]1OC(=O)CCCCCCCCC=C[C@H](C)[C@H](O)[C@@H](C)C=CCC[C@@H](O)[C@H]1C [Compound 43, (1S,13S,14S,15S,20R,21R,22R)-14,20-Dihydroxy-13,15,21-trimethyl-22-(1-methylpenta-2,4-dienyl)-oxacyclodocosa-11,16-dien-2-one]	15 to 30 µM	15 to 30 µM		
C=C/C=C\[C@H](C)[C@H](OC(N)=O)[C@@H](C)[C@H](O)[C@@H](C)C/C(C)=C\[C@H](C)[C@@H](O)[C@@H](C)/C=C\[C@@H](O)C[C@@H]1OC(=O)[C@H](C)[C@@H](O)[C@H]1C [discodermolide, (+)-discodermolide]			superior to paclitaxel	
C=C/C=C\[C@H](C)[C@H](OC(N)=O)[C@@H](C)[C@H](O)CC/C=C\[C@H](C)[C@H](O)[C@@H](C)/C=C\CC[C@@H]1O[C@@H](OC)[C@H](C)[C@@H](OCOC)[C@H]1C [Compound 42, Carbamic acid, (1S,2S,3R,6Z,8S,9S,10S,11Z)-3,9-dihydroxy-14-[(2S,3S,4S,5R,6R)-6-methoxy-4-methoxymethoxy-3,5-dimethyltetrahydropyran-2-yl]-2,8,10-trimethyl-1-[(1S,2Z)-1-methylpenta-2,4-dienyl]tetradeca-6,11-dienyl ester]			more rapid polymer-inducing and cold-resistant properties	GI50 (PC3 (prostate)): 15 ± 3 µM; GI50 (MDA-MB231 (breast)): 3.4 ± 0.8 µM; GI50 (2008 (ovarian)): 4.7 ± 0.6 µM
C=CC=C[C@H](C)[C@@H](O)[C@H](C)[C@H](O)CCC=C[C@H](C)[C@@H](O)[C@@H](C)C=CCCCCCCCCC(=O)OC [Compound 48, (12S,13S,14S,19R,20R,21R,22S)-13,19,21-Trihydroxy-12,14,20,22-tetramethylhexacosa-10,15,23,25-tetraenoic acid methyl ester]	15 to 30 µM	15 to 30 µM		
C=C/C=C\[C@H](C)[C@H](OC(N)=O)[C@@H](C)[C@H](O)CC/C=C\[C@H](C)[C@H](O)[C@@H](C)/C=C\CC[C@@H]1OC(=O)[C@H](C)[C@@H](OCOC)[C@H]1C [Compound 41, Carbamic acid, (1S,2S,3R,6Z,8S,9S,10S,11Z)-3,9-dihydroxy-14-[(2S,3S,4S,5R)-4-methoxymethoxy-3,5-dimethyl-6-oxotetrahydropyran-2-yl]-2,8,10-trimethyl-1-[(1S,2Z)-1-methylpenta-2,4-dienyl]tetradeca-6,11-dienyl ester]	submicromolar		more rapid polymer-inducing and cold-resistant properties; also recorded: most potent among these analogs	GI50 (PC3 (prostate)): 1.8 ± 0.9 µM; Displacement of [3H]paclitaxel from microtubules (in words) ([1]; 2-fold molar excess of test agent): better than paclitaxel and at almost the same potency as discodermolide; GI50 (MDA-MB231 (breast)): 0.87 ± 0.21 µM; GI50 (2008 (ovarian)): 0.65 ± 0.25 µM
C=CC=C[C@H](C)[C@@H](O)[C@H](C)[C@H](O)CCC=C[C@H](C)[C@@H](O)[C@@H](C)C=CCCCCCCCCCO [Compound 47, (12S,13S,14S,19R,20R,21R,22S)-12,14,20,22-Tetramethylhexacosa-10,15,23,25-tetraene-1,13,19,21-tetraol]	15 to 30 µM	15 to 30 µM		
C=CC=C[C@H](C)[C@@H](O)[C@H](C)[C@H](O)CCC=C[C@H](C)[C@@H](O)[C@@H](C)C=CCCCCCCCCC(=O)O [Compound 49, (12S,13S,14S,19R,20R,21R,22S)-13,19,21-Trihydroxy-12,14,20,22-tetramethylhexacosa-10,15,23,25-tetraenoic acid]	> 50 µM	> 50 µM		
